{"source": "ChEMBL document CHEMBL1126412", "about": "“RP 70676: A potent systematically available inhibitor of acyl-CoA:cholesterol O-acyl transferase (ACAT)” (Bioorg Med Chem Lett, 1992)", "key": {"[1]": {"molecular_target": "T1, Sterol O-acyltransferase 1 (Rattus norvegicus, UniProt O70536)", "T1 sequence (O70536 whole entry)": "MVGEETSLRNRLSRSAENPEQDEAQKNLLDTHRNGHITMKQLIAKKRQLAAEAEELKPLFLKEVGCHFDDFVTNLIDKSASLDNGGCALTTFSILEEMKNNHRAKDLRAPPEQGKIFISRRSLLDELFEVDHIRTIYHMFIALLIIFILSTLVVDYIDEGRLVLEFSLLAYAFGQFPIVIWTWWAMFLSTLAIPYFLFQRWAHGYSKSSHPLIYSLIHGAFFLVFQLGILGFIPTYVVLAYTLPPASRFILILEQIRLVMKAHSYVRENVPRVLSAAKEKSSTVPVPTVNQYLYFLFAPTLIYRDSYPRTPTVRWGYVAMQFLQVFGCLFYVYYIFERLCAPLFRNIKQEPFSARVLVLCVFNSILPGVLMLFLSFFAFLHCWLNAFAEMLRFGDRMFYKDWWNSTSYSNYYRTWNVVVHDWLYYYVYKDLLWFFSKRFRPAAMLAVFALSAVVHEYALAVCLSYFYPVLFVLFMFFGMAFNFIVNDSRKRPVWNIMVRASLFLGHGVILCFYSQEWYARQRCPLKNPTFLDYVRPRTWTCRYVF", "assay": "Concentration required for the inhibition of cholesterol O-acyl transferase (ACAT) from rat liver"}, "[2]": {"molecular_target": "T2, Acyl-CoA:cholesterol acyltransferase (Oryctolagus cuniculus, UniProt Q95214)", "T2 sequence (Q95214 whole entry)": "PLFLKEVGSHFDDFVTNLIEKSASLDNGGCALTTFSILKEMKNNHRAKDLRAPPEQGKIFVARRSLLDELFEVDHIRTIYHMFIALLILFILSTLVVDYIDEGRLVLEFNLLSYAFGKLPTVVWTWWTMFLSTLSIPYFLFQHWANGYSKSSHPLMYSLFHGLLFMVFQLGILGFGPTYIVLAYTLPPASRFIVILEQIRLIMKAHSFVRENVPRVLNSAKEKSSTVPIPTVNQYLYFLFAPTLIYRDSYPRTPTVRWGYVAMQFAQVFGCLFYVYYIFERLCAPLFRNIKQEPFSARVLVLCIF", "assay": "Concentration required for the inhibition of cholesterol O-acyl transferase (ACAT) from cholesterol fed rabbit liver"}, "[3]": {"molecular_target": "T3, Sterol O-acyltransferase 1 (Cricetulus griseus, UniProt Q60457)", "T3 sequence (Q60457 whole entry)": "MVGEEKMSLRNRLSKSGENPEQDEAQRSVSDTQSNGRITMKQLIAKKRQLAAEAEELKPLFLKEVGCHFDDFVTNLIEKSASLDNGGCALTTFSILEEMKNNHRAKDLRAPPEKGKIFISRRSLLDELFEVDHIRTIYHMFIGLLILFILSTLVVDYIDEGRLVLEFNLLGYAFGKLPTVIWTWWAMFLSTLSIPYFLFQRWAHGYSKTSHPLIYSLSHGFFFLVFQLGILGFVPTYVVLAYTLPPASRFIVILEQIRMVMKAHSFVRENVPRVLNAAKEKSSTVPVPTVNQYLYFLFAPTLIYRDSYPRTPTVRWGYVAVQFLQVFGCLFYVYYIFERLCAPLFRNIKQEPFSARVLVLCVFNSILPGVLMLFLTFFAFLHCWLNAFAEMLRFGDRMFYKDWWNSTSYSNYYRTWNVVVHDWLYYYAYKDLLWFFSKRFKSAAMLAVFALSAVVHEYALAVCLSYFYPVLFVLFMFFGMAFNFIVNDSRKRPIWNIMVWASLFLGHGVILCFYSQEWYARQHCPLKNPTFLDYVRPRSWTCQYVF", "assay": "Concentration required for the inhibition of Cholesterol O-acyl transferase from hamster liver"}, "[4]": {"species_on_record": "Oryctolagus cuniculus", "assay": "Evaluated for the reduction of plasma cholesterol level in NZW rabbits with 0.25% cholesterol in diet", "type": "functional"}, "[5]": {"species_on_record": "Oryctolagus cuniculus", "assay": "Evaluated for the reduction of plasma cholesterol level in NZW rabbits with 5% cholesterol in diet; AUC; mM.days", "type": "functional"}, "[6]": {"species_on_record": "Oryctolagus cuniculus", "assay": "Percent change of cholesterol ester level in thoracic aorta of NZW rabbits form control", "type": "functional"}, "[7]": {"species_on_record": "Oryctolagus cuniculus", "assay": "Percent change of cholesterol ester level in thoracic aorta of NZW rabbits from control", "type": "functional"}, "[8]": {"species_on_record": "Oryctolagus cuniculus", "assay": "Percent change of cholesterol esters level in abdominal aorta of NZW rabbits form control", "type": "functional"}, "[9]": {"species_on_record": "Oryctolagus cuniculus", "assay": "Percent change of cholesterol esters level in abdominal aorta of NZW rabbits from control", "type": "functional"}, "[10]": {"species_on_record": "Oryctolagus cuniculus", "assay": "Percent change of free cholesterol level in abdominal aorta of NZW rabbits form control", "type": "functional"}, "[11]": {"species_on_record": "Oryctolagus cuniculus", "assay": "Percent change of free cholesterol level in abdominal aorta of NZW rabbits from control", "type": "functional"}, "[12]": {"species_on_record": "Oryctolagus cuniculus", "assay": "Percent change of free cholesterol levels in thoracic aorta of NZW rabbits form control", "type": "functional"}, "[13]": {"species_on_record": "Oryctolagus cuniculus", "assay": "Percent change of free cholesterol levels in thoracic aorta of NZW rabbits from control", "type": "functional"}, "[14]": {"species_on_record": "Oryctolagus cuniculus", "assay": "Percent change of plasma cholesterol level in NZW rabbits form control", "type": "functional"}, "[15]": {"species_on_record": "Oryctolagus cuniculus", "assay": "Percent change of plasma cholesterol level in NZW rabbits from control", "type": "functional"}}}
{"compound": "c1ccc(-c2nc(SCCCCCSc3ncc[nH]3)[nH]c2-c2ccccc2)cc1", "values": [{"measurement": "IC50", "setting": "[1]", "value": 0.044, "unit": "µM"}, {"measurement": "IC50", "setting": "[2]", "value": 0.88, "unit": "µM"}]}
{"compound": "Cn1ccnc1S(=O)(=O)CCCSc1nc(-c2ccccc2)c(-c2ccccc2)[nH]1", "values": [{"measurement": "IC50", "setting": "[1]", "value": 0.011, "unit": "µM"}, {"measurement": "IC50", "setting": "[2]", "value": 8, "unit": "µM"}]}
{"compound": "Cn1ccnc1SCCCSc1nc(-c2ccccc2)c(-c2ccccc2)[nH]1", "values": [{"measurement": "IC50", "setting": "[1]", "value": 0.014, "unit": "µM"}, {"measurement": "IC50", "setting": "[2]", "value": 0.97, "unit": "µM"}]}
{"compound": "Cn1ccnc1SCCCCSc1nc(-c2ccccc2)c(-c2ccccc2)[nH]1", "values": [{"measurement": "IC50", "setting": "[1]", "value": 0.038, "unit": "µM"}, {"measurement": "IC50", "setting": "[2]", "value": 0.18, "unit": "µM"}]}
{"compound": "Cc1cc(C)n(CCCCCSc2nc(-c3ccccc3)c(-c3ccccc3)[nH]2)n1", "values": [{"measurement": "IC50", "setting": "[3]", "value": 0.012, "unit": "µM"}, {"measurement": "AUC", "setting": "[4]", "value": 776, "unit": "mM·days"}, {"measurement": "AUC", "setting": "[5]", "value": 1440, "unit": "mM·days"}, {"measurement": "Change", "setting": "[6]", "value": "<-40", "unit": "%"}, {"measurement": "Change", "setting": "[7]", "value": "<-42", "unit": "%"}, {"measurement": "Change", "setting": "[8]", "value": "<-46", "unit": "%"}, {"measurement": "Change", "setting": "[9]", "value": "<-40", "unit": "%"}, {"measurement": "Change", "setting": "[10]", "value": "<-36", "unit": "%"}, {"measurement": "Change", "setting": "[11]", "value": "<-27", "unit": "%"}, {"measurement": "Change", "setting": "[12]", "value": "<-44", "unit": "%"}, {"measurement": "Change", "setting": "[13]", "value": "<-36", "unit": "%"}, {"measurement": "Change", "setting": "[14]", "value": "<-46", "unit": "%"}, {"measurement": "Change", "setting": "[15]", "value": "<-40", "unit": "%"}]}
{"compound": "c1ccc(-c2nc(SCCCn3cccn3)[nH]c2-c2ccccc2)cc1", "values": [{"measurement": "IC50", "setting": "[1]", "value": 0.05, "unit": "µM"}, {"measurement": "IC50", "setting": "[2]", "value": "> 1", "unit": "µM"}]}
{"compound": "c1ccc(-c2nc(SCCCCCCn3cccn3)[nH]c2-c2ccccc2)cc1", "values": [{"measurement": "IC50", "setting": "[1]", "value": 0.048, "unit": "µM"}, {"measurement": "IC50", "setting": "[2]", "value": 0.59, "unit": "µM"}]}
{"compound": "c1ccc(-c2nc(SCCCCCn3cccn3)[nH]c2-c2ccccc2)cc1", "values": [{"measurement": "IC50", "setting": "[1]", "value": 0.024, "unit": "µM"}, {"measurement": "IC50", "setting": "[2]", "value": 0.28, "unit": "µM"}]}
{"compound": "CCCCCCCN(CCCCCSc1nc(-c2ccccc2)c(-c2ccccc2)[nH]1)C(=O)Nc1ccc(F)cc1F", "note": "[LECIMIBIDE]", "values": [{"measurement": "IC50", "setting": "[1]", "value": 0.01, "unit": "µM"}]}
